Laboratory results published in ChEMBL document CHEMBL1150082, “Antheliatin and Zahavins A and B, Three New Cytotoxic Xenicane Diterpenes from Two Soft Corals” (J Nat Prod, 1995).
Converted amounts (≈) assume the structure as drawn.

Tests used:
Format in all cases: functional, cell-based
P388 = assay: Cytotoxicity against mouse P388 cells
A549 = assay: Cytotoxicity against human A549 cells
SK-MEL-28 = assay: Cytotoxicity against human SK-MEL-28 cells
HT-29 = assay: Cytotoxicity against human HT-29 cells

Structure (SMILES)	IC50 (P388) [µg/mL]	IC50 (A549) [µg/mL]	IC50 (SK-MEL-28) [µg/mL]	IC50 (HT-29) [µg/mL]
C=C(C)C(CC(OC(C)=O)C1=CO[C@H](OC(C)=O)[C@@H]2C(=C)[C@H](O)C/C=C(\C)CC[C@H]12)OC(C)=O (some centres not stated) [ZAHAVIN B]	1 (≈ 2.1 µM)	1 (≈ 2.1 µM)	1 (≈ 2.1 µM)	1 (≈ 2.1 µM)
C=C1[C@H]2[C@@H](OC(C)=O)OC=C([C@H](OC(C)=O)[C@@H](C=C(C)C)OC(=O)c3ccccc3)[C@H]2CC/C(C)=C/[C@H](OC(C)=O)[C@H]1O [ANTHELIATIN]	1 (≈ 1.68 µM)	1 (≈ 1.68 µM)	1 (≈ 1.68 µM)	0.1 (≈ 0.168 µM)
C=C(C)C(CC(OC(C)=O)C1=CO[C@H](OC(C)=O)[C@H]2C(=C)CC/C=C(\C)CC[C@H]12)OC(C)=O (some centres not stated) [ZAHAVIN A]	1 (≈ 2.17 µM)	1 (≈ 2.17 µM)	1 (≈ 2.17 µM)	1 (≈ 2.17 µM)
